Laboratory results from patent US10799467B2, “Use of the phytocannabinoid cannabidivarin (CBDV) in the treatment of epilepsy” (GW Pharma Limited, priority 2010, dated 2020).

Legend:
PTZ-induced seizures [1] = experiment: CBDV with standard anti-epileptic drugs in the PTZ model of generalised seizures; format: in vivo, Wistar rats
Protocol: As described in Example 2 above. Varying doses of the SAED's ethosuximide and valproate were tested in combination to isolated CBDV at a dose of 200 mg/kg.

PTZ-induced seizures [2] = experiment: PTZ model of generalised seizures (80 mg/kg PTZ); format: in vivo, Wistar rats; conditions: for proportion of animals that died / proportion of animals reaching tonic-clonic seizures: vehicle 8 of 15
Protocol: Male Wistar rats (P24-29; 75-110 g) were used to assess the effects of the phytocannabinoid CBDV in the PTZ model of generalised seizures. Animals were habituated to the test environment, cages, injection protocol and handling prior to experimentation. Animals were housed in a room at 21° C. on a 12 hour light: dark cycle (lights on 0900) in 50% humidity, with free access to food and water.
Five 6 L Perspex tanks with lids were placed on a single bench with dividers between them. Closed-circuit television (CCTV) cameras were mounted onto the dividers to observe rat behaviour. Sony Topica CCD cameras (Bluecherry, USA) were linked via BNC cables to a low-noise PC via Brooktree digital capture cards (Bluecherry, USA). Zoneminder (http://www.zoneminder.com) software was used to monitor rats, start and end recordings and manage video files. In-house Linux scripts were used to encode video files into a suitable format for further offline analysis using The Observer (Noldus Technologies).
A range of doses of PTZ (50-100 mg/kg body weight) were used to determine the best dose for induction of seizures (see below). As a result, a dose of 80 mg/kg injected intra-peritoneally (IP; stock solution 50 mg/ml in 0.9% saline) were used to screen the CBDV.
On the day of testing, pure CBDV was administered via intra-peritoneal (i.p.) injection at doses of 50, 100 and 200 mg/kg alongside animals that were injected with a matched volume of the cannabinoid vehicle (2:1:17 ethanol:Cremophor: 0.9% w/v NaCl solution), which served as the negative control group. Animals were then observed for 1 hour, after which time they received an IP injection of 80 mg/kg PTZ. Negative vehicle controls were performed in parallel with cannabinoid-dosed subjects. After receiving a dose of PTZ, animals were observed and videoed to determine the severity of seizure and latency to several seizure behaviour types (see in vivo analysis, below). Animals were filmed for half an hour after last sign of seizure, and then returned to their cage.
Animals were observed during experimental procedures, but all analysis was performed offline on recorded video files using The Observer behavioural analysis software (Noldus, Netherlands). A seizure severity scoring system was used to determine the levels of seizure experienced by subjects (Pohl & Mares, 1987). All signs of seizure were detailed for all animals.
The latency (in seconds) from injection of PTZ to first myoclonic jerk (FMJ; score of 1), and to the animal attaining “forelimb clonus with tonic component and body twist” (score of 3.5) were recorded. FMJ is an indicator of the onset of seizure activity, whilst >90% of animals developed scores of 3.5, and so is a good marker of the development of more severe seizures. Data are presented as the mean±S.E.M. within an experimental group.
This is given as the median value for each experimental group based on the scoring scale below.
The percentage of animals within an experimental group that died as a result of PTZ-induced seizures. Note that the majority of animals that developed tonic-clonic seizures (scores of 4 and 5) died as a result, and that a score of 6 (death) automatically denotes that the animal also experienced tonic-clonic seizures.
This is given as the mean±S.E.M. for each experimental group.
For measures of latency and severity, one way analysis of variance (ANOVA) was performed on the four groups together (vehicle and 50, 100 and 200 mg/kg CBDV) to detect overall effects of CBDV (p≤0.05 considered significant).
Significant ANOVA results were followed by post hoc tests to test differences between vehicle and drug groups (Tukey's test, p≤0.05 considered significant).
Methodology as described in Example 2.
General methodology is as described in Example 2.
Three doses of THCV BDS were assessed against a concentration of PTZ known to induce moderate seizures in rats (70 mg/kg; see pilot, above). […]

[3] = tested on: pilocarpine-induced seizures; experiment: Pilocarpine model of epilepsy; format: in vivo; conditions: CBDV 50 and 100 mg/kg IP; pilocarpine 380 mg/kg IP
Protocol: Isolated CBDV was injected intra-peritoneally (IP) in the standard vehicle (1:1:18 ethanol:Cremophor:0.9%^w/v NaCl) at doses of 50, 100 and 200 mg/kg alongside animals that received vehicle alone at a matched volume. 15 minutes later methylscopolamine (1 mg/kg; to reduce peripheral muscarinic effects of pilocarpine) was administered followed, 45 minutes later by pilocarpine (380 mg/kg, IP) administration.

[4] = tested on: pilocarpine-induced seizures; experiment: CBDV with standard anti-epileptic drugs in the pilocarpine model of epilepsy; format: in vivo
Text: These two drugs are representative of two classes of anti-convulsants which have different mechanisms of action.

[5] = Observation of side effects in all experiments with isolated CBDV and CBDV BDS; format: in vivo; conditions: all experiments using isolated CBDV and CBDV BDS
[6] = valproate (varying doses) co-administered with CBDV 200 mg/kg
[7] = CBDV 200 mg/kg with valproate at various doses

With `C=C(C)[C@@H]1CCC(C)=C[C@H]1c1c(O)cc(CCC)cc1O` [CBDV, Cannabidivarin] as the molecule, how does the “severity of the epilepsy, CBDV compared with SAED” value (PTZ-induced seizures [1]; CBDV 200 mg/kg) read?
Its value is “lessen the severity of the epilepsy to a greater degree than the existing epileptic drug valproate”.

And the “mortality (independent effect when co-administered)” value (PTZ-induced seizures [1]; [6])?
Its value is “significant decreases”.

And the “onset latency (independent effect when co-administered)” value (PTZ-induced seizures [1]; [6])?
Its value is “significant decreases”.

What about the “seizure severity (independent effect when co-administered)” value (PTZ-induced seizures [1]; [6]) of the same molecule?
Its value is “significant decreases”.

And the “proportion of animals that died” value (PTZ-induced seizures [2]; 100 mg/kg CBDV i.p., 80 mg/kg PTZ, p=0.002)?
Its value is 1 out of 15.

And the “proportion of animals reaching tonic-clonic seizures” value (PTZ-induced seizures [2]; 100 mg/kg CBDV i.p., 80 mg/kg PTZ, p=0.036)?
The value was 4 of 15.

What about the “latency to seizure onset vs vehicle” value (PTZ-induced seizures [2]; 200 mg/kg CBDV i.p. 1 hour before 80 mg/kg PTZ, p=0.03) of the same molecule?
Its value is “significantly higher”.

What about the “median seizure severity vs vehicle” value (PTZ-induced seizures [2]; 200 mg/kg CBDV i.p., 80 mg/kg PTZ, p=0.014) of the same molecule?
Its value is “significantly lower”.

What about the “latency to clonic seizures vs vehicle” value (PTZ-induced seizures [2]; 200 mg/kg CBDV i.p., 80 mg/kg PTZ, p=0.032) of the same molecule?
The value was “significant increase”.

What about the “animals that experienced no seizure at all” value (PTZ-induced seizures [2]; 200 mg/kg CBDV i.p., 80 mg/kg PTZ, vehicle 1 of 15, p=0.003) of the same molecule?
The value was 5 of 15.

And the “proportion of animals that died” value (PTZ-induced seizures [2]; 200 mg/kg CBDV i.p., 80 mg/kg PTZ, p<0.001)?
Its value is 2 out of 15.

What about the “proportion of animals reaching tonic-clonic seizures” value (PTZ-induced seizures [2]; 200 mg/kg CBDV i.p., 80 mg/kg PTZ, p=0.01) of the same molecule?
The value was 3 of 15.

And the “latency to tonic-clonic seizures” value (PTZ-induced seizures [2]; overall or at any specific dose (50, 100, 200 mg/kg CBDV i.p.), 80 mg/kg PTZ)?
The value was “No significant effect”.

And the mortality [3]?
The mortality was “decreased”.

What about the seizure severity ([4]; CBDV 200 mg/kg with phenobarbital at various doses) of the same molecule?
The seizure severity was “significantly decreases”.

And the “mortality (independent effect)” value [4, 7]?
Its value is “significant decrease”.

And the “seizure severity (independent effect)” value [4, 7]?
Its value is “independent and positive effects”.

What about the bilateral seizure incidence ([4]; CBDV 200 mg/kg, particularly with high dose Valproate (250 mg/kg)) of the same molecule?
Its bilateral seizure incidence is “significantly decreased”.

And the “CBDV interaction (alone) with clonic tonic seizure” value ([4]; CBDV 200 mg/kg, valproate study)?
The value was “statistically significant”.

And the notable side effects [5]?
The notable side effects was “did not exhibit any notable side effects”.
